# Assay results reported in paper PMC5447021, “TNF Lectin-Like Domain Restores Epithelial Sodium Channel Function in Frameshift Mutants Associated with Pseudohypoaldosteronism Type 1B” (Frontiers in Immunology, 2017).
# Molecular target: T1, αβγ-hENaC (Homo sapiens, UniProt P37088+P51168+P51170)
# T1 construct: expressed in transfected cells; host or cells: HEK-293
# T1 sequence (P37088 1-669): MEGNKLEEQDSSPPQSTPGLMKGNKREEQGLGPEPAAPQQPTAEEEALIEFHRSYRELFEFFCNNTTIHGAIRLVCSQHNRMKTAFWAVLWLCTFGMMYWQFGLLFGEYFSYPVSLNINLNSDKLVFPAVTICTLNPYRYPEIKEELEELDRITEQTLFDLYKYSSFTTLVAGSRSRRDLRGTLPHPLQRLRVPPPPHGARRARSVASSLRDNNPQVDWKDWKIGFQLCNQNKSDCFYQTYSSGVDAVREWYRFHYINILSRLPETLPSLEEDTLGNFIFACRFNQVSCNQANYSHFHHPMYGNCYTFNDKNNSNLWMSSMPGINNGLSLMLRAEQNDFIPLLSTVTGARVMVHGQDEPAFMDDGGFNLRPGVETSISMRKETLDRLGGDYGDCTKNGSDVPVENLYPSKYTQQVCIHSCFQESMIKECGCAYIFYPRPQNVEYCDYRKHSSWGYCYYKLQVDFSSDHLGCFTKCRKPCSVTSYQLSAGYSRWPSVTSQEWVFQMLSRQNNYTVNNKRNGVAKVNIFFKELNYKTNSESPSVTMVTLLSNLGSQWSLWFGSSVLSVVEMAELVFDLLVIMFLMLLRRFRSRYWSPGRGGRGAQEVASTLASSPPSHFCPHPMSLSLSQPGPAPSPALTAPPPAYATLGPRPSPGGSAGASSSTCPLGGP
# T1 sequence (P51168 1-640 partner): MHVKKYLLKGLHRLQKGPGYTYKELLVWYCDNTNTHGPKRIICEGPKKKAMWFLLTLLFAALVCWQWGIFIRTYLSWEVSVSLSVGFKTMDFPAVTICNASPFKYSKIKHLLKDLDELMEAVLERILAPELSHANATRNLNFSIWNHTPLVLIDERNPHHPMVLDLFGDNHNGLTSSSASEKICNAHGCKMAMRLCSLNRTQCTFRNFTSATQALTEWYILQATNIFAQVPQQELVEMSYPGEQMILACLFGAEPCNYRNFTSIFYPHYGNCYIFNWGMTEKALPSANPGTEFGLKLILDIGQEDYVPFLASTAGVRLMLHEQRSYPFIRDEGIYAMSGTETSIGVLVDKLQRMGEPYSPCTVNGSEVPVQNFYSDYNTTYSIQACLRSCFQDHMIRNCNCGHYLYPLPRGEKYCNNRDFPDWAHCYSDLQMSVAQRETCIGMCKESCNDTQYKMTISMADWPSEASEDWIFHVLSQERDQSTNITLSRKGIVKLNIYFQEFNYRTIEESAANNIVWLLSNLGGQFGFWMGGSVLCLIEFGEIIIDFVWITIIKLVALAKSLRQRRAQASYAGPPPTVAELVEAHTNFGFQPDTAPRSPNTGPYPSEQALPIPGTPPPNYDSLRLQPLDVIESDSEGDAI
# T1 sequence (P51170 1-649 partner): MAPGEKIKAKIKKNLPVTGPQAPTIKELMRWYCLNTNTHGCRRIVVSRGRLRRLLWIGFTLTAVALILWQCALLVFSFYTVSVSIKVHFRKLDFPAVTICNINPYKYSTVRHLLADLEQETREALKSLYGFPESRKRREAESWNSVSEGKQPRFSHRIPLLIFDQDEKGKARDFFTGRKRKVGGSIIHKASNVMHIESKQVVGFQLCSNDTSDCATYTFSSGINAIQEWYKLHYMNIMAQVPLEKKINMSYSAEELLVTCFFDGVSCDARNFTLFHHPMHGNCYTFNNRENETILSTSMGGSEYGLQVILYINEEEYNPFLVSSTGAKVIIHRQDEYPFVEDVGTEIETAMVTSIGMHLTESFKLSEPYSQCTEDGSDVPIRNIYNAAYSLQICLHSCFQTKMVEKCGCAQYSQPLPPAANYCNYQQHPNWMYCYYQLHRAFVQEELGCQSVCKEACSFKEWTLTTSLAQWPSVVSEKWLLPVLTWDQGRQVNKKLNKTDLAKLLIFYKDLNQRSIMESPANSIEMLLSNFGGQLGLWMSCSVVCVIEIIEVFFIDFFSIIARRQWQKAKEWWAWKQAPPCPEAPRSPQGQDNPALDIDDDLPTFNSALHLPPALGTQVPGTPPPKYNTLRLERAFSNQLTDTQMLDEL
# Assay: Whole-cell patch clamp, WT αβγ-hENaC
# Type: cell-based
# Settings: exposure time, WT αβγ-ENaC (Figure 1)
# Procedure: Point mutations of α-, β-, γ- and δ-hENaC and PHA1B frameshift mutations of α-hENaC were prepared with the QuikChange Lightning Site-Directed Mutagenesis Kit (Agilent Technologies, CA, USA). Mutagenic primers were designed individually with the Primer Design Program provided on the producer’s website or for the frameshift mutations the same base changes as reported in patients (see Table 2) were performed. Primers were ordered from Sigma-Aldrich, Vienna, Austria.
# HEK-293 cells were transfected 1 day after cell seeding using X-tremeGENE HP DNA transfection reagent (Roche Diagnostics, Mannheim, Germany) according to the manufacturer’s protocol. A set of WT or mutant αβγ- or δβγ-hENaC, or α-, β-, γ-, or δ-hENaC alone was used, and the ratio of DNA to transfection reagent was 1:3. The expression was highest 48–72 h after transfection.
# Electrophysiological experiments were performed as described in detail by Shabbir et al. ([16]). […] Currents were recorded with the patch clamp method in the whole-cell mode. The chamber contained 1 ml of the bath solution of the following composition (in mM): 145 NaCl, 2.7 KCl, 1.8 CaCl2, 2 MgCl2, 5.5 glucose, and 10 HEPES, adjusted to pH 7.4 with 1 M NaOH solution. Micropipettes were pulled from thin-walled borosilicate glass capillaries (Harvard Apparatus, Holliston, MA, USA) with a DMZ Zeitz Puller to obtain electrode resistances ranging from 2 to 5 MΩ. The pipette solution contained (in millimolars): 135 potassium methane sulfonate, 10 KCl, 6 NaCl, 1 Mg2ATP, 2 Na3ATP, 10 HEPES, and 0.5 EGTA, adjusted to pH 7.2 with 1 M KOH solution. Chemicals for pipette and bathing solutions were supplied by Sigma-Aldrich (Vienna, Austria). Electrophysiological measurements were carried out with an Axopatch 200B patch clamp amplifier (Axon Instruments, CA, USA). Capacity transients were canceled, and series resistance was compensated. Whole-cell currents were filtered at 5 kHz and sampled at 10 kHz. Data acquisition and storage were processed directly to a PC equipped with pCLAMP 10.2 software (Axon Instruments, CA, USA). […]
structure (smiles),measurement,value
"C[C@@H]1NC(=O)CNC(=O)[C@H](CCC(=O)O)NC(=O)[C@@H]2CCCN2C(=O)[C@H]([C@@H](C)O)NC(=O)[C@H](CCC(=O)O)NC(=O)[C@H](CCCNC(=N)N)NC(=O)[C@H](CCC(N)=O)NC(=O)CNC(=O)[C@@H](N)CSSC[C@@H](C(=O)O)NC(=O)[C@H](Cc2ccc(O)cc2)NC(=O)[C@H](Cc2c[nH]c3ccccc23)NC(=O)[C@@H]2CCCN2C(=O)[C@H](CCCCN)NC(=O)[C@H](C)NC(=O)[C@H](CCC(=O)O)NC1=O [solnatide, L-cysteine, L-cysteinylglycyl-L-glutaminyl-L-arginyl-L-α-glutamyl-L-threonyl-L-prolyl-L-α-glutamylglycyl-L-alanyl-L-α-glutamyl-L-alanyl-L-lysyl-L-prolyl-L-tryptophyl-L-tyrosyl-, cyclic (1→17)-disulfide]",Time to maximal stimulatory effect,~ 2 min
